The nature of data set [1]: Toxicity in mice, intraperitoneal administration. The following applies: mouse, in vivo, ip, read-out: dose at which mice survive.
Data set [2] relates to synthesis of cholesterol in a rat liver. As to the kind of experiment: Inhibitory activity against the biosynthesis of cholesterol in a rat liver. The format is biochemical. The procedure:
10. Inhibitory activity against the biosynthesis of cholesterol: a 50% inhibition of the synthesis of cholesterol in a rat liver is observed at a concentration of 0.04 μg/ml.

A short description of data set [3]: Solubility in organic solvents. It counts as physicochemical.

Consider `CCC(C)C(=O)OC1CCC(O)C2=CC(O)C(C)C(CCC3CC(O)CC(=O)O3)C21` (centres unmarked) [3',5'-dihydroxy-(DH.ML-236B), 3',5'-Dihydroxy-(DH.ML-236B)], for which the MTD in data set [1] was not above 1 mg/kg.

In the case of `CC1C=C2C=CC(C)C(CCC3CC(O)CC(=O)O3)C2C(O)C1` (centres unmarked) [MB-530A], the “concentration at which a 50% inhibition of the synthesis of cholesterol is observed” value in data set [2] amounted to 0.04 µg/mL. Moreover, the Solubility result is given as “soluble” in data set [3] (benzene); “insoluble” in data set [3] (hexane and petroleum ether); “readily soluble” in data set [3] (methanol, ethanol, acetone, ethyl acetate, chloroform and carbon tetrachloride).
